Like-named read-outs stand apart in the source and are kept apart here. Each block holds one compound with its values, some of them ahead of it.
Columns and labels:
rat D2-like receptors = rat D2-like receptors (Rattus norvegicus, UniProt P61169); test: biochemical; assay type: binding
[1] = target: rat D3 dopamine receptors (Rattus norvegicus, UniProt P19020); test: biochemical; assay type: binding
human D3 receptor = human D3 receptor (Homo sapiens, UniProt P35462); test: cell-based; assay type: cell-based
Chain of human D3 receptor (P35462 whole entry): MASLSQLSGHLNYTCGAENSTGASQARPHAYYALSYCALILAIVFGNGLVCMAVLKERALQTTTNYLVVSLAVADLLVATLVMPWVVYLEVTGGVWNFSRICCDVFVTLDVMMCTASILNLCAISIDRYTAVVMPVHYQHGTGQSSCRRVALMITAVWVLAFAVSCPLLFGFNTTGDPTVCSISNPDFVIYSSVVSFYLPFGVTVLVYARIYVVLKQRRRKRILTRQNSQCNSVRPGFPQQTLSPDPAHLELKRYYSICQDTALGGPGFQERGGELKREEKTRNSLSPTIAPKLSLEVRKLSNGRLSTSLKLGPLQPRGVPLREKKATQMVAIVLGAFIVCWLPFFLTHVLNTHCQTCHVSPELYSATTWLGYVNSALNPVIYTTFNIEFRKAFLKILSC

Chain of rat D3 dopamine receptors (P19020 whole entry): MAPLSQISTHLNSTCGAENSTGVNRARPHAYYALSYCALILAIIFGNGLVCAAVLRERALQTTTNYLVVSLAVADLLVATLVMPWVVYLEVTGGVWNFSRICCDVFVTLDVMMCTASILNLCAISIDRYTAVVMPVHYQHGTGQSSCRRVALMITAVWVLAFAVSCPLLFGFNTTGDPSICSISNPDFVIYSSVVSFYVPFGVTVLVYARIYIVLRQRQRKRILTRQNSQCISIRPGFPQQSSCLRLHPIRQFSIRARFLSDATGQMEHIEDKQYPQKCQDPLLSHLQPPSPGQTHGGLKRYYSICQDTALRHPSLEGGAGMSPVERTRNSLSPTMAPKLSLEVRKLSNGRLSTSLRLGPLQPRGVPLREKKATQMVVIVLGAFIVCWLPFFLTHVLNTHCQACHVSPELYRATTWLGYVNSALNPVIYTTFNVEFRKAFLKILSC
Chain of rat D2-like receptors (P61169 1-415 isoform P61169-2): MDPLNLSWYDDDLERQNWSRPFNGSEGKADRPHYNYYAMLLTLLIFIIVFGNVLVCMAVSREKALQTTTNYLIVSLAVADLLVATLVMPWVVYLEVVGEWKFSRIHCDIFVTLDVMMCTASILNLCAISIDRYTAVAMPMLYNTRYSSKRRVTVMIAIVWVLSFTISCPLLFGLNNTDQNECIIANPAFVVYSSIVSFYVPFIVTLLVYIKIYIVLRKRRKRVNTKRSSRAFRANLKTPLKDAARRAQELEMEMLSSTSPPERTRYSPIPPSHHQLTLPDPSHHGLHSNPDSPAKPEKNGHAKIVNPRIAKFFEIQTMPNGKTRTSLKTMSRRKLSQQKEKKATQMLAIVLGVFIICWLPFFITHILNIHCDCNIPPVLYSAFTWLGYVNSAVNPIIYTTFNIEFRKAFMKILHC

- Ki (rat D2-like receptors): > 100000 nM
SMILES: CCCN(CC[C@]1(O)C[C@@H](NC(=O)c2ccc3ccccc3c2)C1)C1CC1c1ccc(Cl)cc1 (relative stereo) [(±)-11, N-(cis-3-(2-((((±)-trans)-2-(4-Chlorophenyl)cyclopropyl)(propyl)-amino)ethyl)-3-hydroxycyclobutyl)-2-naphthamide]
- binding to the rat D2 receptor (rat D2-like receptors): neither compound showing measurable binding

- Ki (rat D2-like receptors): 503 ± 63 nM
SMILES: CCCN(CC[C@]1(O)C[C@@H](NC(=O)c2ccc3ccccc3c2)C1)[C@H]1C[C@@H]1c1ccccc1Cl (relative stereo) [(±)-12, N-(cis-3-(2-((((±)-trans)-2-(2-Chlorophenyl)cyclopropyl)(propyl)-amino)ethyl)-3-hydroxycyclobutyl)-2-naphthamide]

SMILES: CCCN(CC[C@]1(O)C[C@@H](NC(=O)c2ccc3ccccc3c2)C1)[C@H]1C[C@@H]1c1cccc(Cl)c1 (relative stereo) [(±)-13, N-(cis-3-(2-((((±)-trans)-2-(3-Chlorophenyl)cyclopropyl)(propyl)-amino)ethyl)-3-hydroxycyclobutyl)-2-naphthamide]
- binding to the rat D2 receptor (rat D2-like receptors; at 100 μM): neither compound showing measurable binding
- selectivity D3/D2 [1]: >29000
- selectivity for rat D3 receptor over rat D2 receptor [1]: > 10000
- Ki ([1]; Ki ± SEM, D3): 26 nM

SMILES: CCCN[C@@H]1C[C@H]1c1ccccc1 [(1R,2S)-9, (1R,2S)-2-Phenyl-N-propylcyclopropanamine]
- selectivity for rat D3 receptor over rat D2 receptor [1]: approximately 80 fold

- selectivity for rat D3 receptor over rat D2 receptor [1]: 20–30 fold
SMILES: CCCN(CC[C@]1(O)C[C@@H](NC(=O)c2ccc3ccccc3c2)C1)[C@@H]1C[C@H]1c1ccccc1 [(1R,2S)-10, N-(cis-3-Hydroxy-3-(2-(((1R,2S)-2-phenylcyclopropyl)(propyl)amino)-ethyl)cyclobutyl)-2-naphthamide]

SMILES: CCCN(CC[C@]1(O)C[C@@H](NC(=O)c2ccc3ccccc3c2)C1)[C@@H]1C[C@H]1c1ccc(Cl)cc1 [(1R,2S)-11, N-(cis-3-(2-(((1R,2S)-2-(4-Chlorophenyl)cyclopropyl)(propyl)-amino)ethyl)-3-hydroxycyclobutyl)-2-naphthamide]
- EC50 (human D3 receptor): > 100000 nM
- slope of the Schild plot (human D3 receptor; D3 activity stimulated by pramipexole): −0.83
- EC50 (human D3 receptor; read-out: agonist activity ED50, β-arrestin binding to human D3, U2OS): > 100000 nM
- agonist activity (human D3 receptor; β-arrestin binding to human D3, in words): no agonist activity
- binding to the rat D2 receptor (rat D2-like receptors): no appreciable binding

SMILES: CCCN[C@H]1C[C@@H]1c1ccccc1 [(1S,2R)-9, (1S,2R)-2-Phenyl-N-propylcyclopropanamine]
- selectivity for rat D3 receptor over rat D2 receptor [1]: approximately 80 fold

- selectivity for rat D3 receptor over rat D2 receptor [1]: 20–30 fold
SMILES: CCCN(CC[C@]1(O)C[C@@H](NC(=O)c2ccc3ccccc3c2)C1)[C@H]1C[C@@H]1c1ccccc1 [(1S,2R)-10, N-(cis-3-Hydroxy-3-(2-(((1S,2R)-2-phenylcyclopropyl)(propyl)-amino)ethyl)cyclobutyl)-2-naphthamide]
